This note sets out measurements from patent publication US11071721B2, “Bicyclic amide compounds and methods of use thereof” (Genentech, Inc., priority 2016, dated 2021).

This test deals with human RIP1 kinase domain (2-375) (Homo sapiens (Human), UniProt Q13546). As to the kind of experiment: RIP1 kinase inhibition assay (Transcreener ADP biochemical enzyme assay). Particulars: Ki app (Morrison tight-binding fit); 50 nM enzyme, 50 uM ATP, 2 hours incubation, fluorescence polarization. Put shortly:
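Baculovirus-expressed human RIP1 kinase domain (2-375), 50 nM, incubated 2 h with compound in pH 7.5 Hepes with 30 mM MgCl2, 1 mM DTT, 50 uM ATP, 0.5% DMSO. ADP detected by Transcreener fluorescence polarization (antibody/AlexaFluor 633 tracer displacement). Ki^app from Morrison tight-binding fit of fractional activity.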

Molecules are shown by their SMILES.

human RIP1 kinase domain (2-375), sequence (Q13546 2-375): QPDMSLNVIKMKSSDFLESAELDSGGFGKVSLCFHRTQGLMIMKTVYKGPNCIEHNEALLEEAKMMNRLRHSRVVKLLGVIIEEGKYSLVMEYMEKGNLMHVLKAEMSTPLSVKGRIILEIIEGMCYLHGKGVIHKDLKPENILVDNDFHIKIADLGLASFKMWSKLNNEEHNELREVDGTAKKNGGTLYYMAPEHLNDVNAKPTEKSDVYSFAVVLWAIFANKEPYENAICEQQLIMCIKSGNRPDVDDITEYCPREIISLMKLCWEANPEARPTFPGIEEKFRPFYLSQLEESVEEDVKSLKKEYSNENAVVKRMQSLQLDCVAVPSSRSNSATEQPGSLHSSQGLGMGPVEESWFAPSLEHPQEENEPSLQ

`CCC(F)(F)n1ncc2cnc(C(=O)N3CC(F)(F)C3)cc21` [Example 103] displayed a Ki of 6.7 µM.
